Data published in patent publication US8420852B2, “Phospholipase A2 inhibitors and their use in treating neurological injury and disease” (The Regents of the University of California, priority 2007, dated 2013).

Assays:
iPLA2 (GVIA) = target: T1, iPLA2 (GVIA) (Homo sapiens, UniProt O60733); assay: standard iPLA2 (GVIA) activity assay, DPPC/Triton X-100 mixed micelles; assay type: biochemical; conditions: at 0.091 mol fraction
T1 sequence (O60733 1-806): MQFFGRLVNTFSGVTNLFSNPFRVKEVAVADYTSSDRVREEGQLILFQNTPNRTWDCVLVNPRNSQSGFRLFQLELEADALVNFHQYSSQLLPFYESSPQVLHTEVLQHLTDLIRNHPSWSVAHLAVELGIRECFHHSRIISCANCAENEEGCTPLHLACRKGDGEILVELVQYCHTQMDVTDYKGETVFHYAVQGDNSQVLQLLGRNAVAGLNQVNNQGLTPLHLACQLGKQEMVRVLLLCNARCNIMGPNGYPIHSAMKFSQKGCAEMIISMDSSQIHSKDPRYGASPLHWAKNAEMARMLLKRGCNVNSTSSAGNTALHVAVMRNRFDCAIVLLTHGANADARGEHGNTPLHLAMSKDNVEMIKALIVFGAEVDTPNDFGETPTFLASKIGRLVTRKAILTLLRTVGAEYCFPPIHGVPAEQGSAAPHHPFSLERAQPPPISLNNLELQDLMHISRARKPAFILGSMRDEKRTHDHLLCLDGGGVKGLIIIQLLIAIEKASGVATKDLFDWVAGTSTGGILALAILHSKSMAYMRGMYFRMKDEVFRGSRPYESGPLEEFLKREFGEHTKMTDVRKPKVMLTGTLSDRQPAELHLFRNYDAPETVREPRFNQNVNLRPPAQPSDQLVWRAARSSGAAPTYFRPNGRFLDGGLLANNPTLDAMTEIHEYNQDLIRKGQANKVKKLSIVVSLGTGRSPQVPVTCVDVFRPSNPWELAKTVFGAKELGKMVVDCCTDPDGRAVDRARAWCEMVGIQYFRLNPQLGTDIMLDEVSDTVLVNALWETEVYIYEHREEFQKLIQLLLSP
Description: The compounds described herein were tested for inhibition of PLA2s in in vitro assay systems. The data, summarized in the Examples, are represented as XI(50) values unless otherwise noted. XI(50) is defined as the inhibitor concentration that produced 50% inhibition. XI(50) is used as opposed to the more common IC50 because GIVA and GVIA PLA2 are active at a two-dimensional lipid interface rather than in three-dimensional solution. (Deems, Anal. Biochem., 287:1-16, 2000).
For the groups that received delayed treatment after symptoms occurred, mice were treated with daily intraperitoneal injections of AX059 starting from the first day of clinical symptoms, beginning on day 11; and AX115 starting from the first day of clinical peak (i.e., score 4), beginning of day 14. All inhibitors were administered for 2 weeks. The selectivity of the compounds for the different PLA2s is shown as the percentage inhibition in Table 1. The XI(50) is the mole fraction of the inhibitor in the total substrate interface required to inhibit the enzyme by 50%.
Compound AX115 was tested for its ability to inhibit human cPLA2 (GIVA) in a cPLA2 (GIVA) specific assay that uses mixed micelles of the substrate 1-palmitoyl-2-arachidonyl phosphatidylcholine and the detergent Triton X-100 (97:3) containing phosphatidylinositol 4,5-bisphosphate (400 μM) as previously described. […]

[1] = test system: chemokine and cytokine protein expression in spinal cord; assay: mouse inflammation antibody array of spinal cords of EAE mice; assay type: in vivo; conditions: treatment from day 5, tissue day 18
Description: Spinal cords were removed from vehicle and inhibitor treated animals when the vehicle-treated mice reached the peak of disease (score of 4). The tissues were then homogenized in lysis buffer and centrifuged at 1000×g. These protein samples were then assessed using the Raybio® inflammatory antibody array from RayBiotech Inc (Norcross, Ga.). Briefly, blocking buffer was added to glass-chip slides, which are coated with antibodies against chemokine, cytokine and related proteins. The slides were then incubated with the various protein samples from the treatment and control groups. After washing the glass slides, they were incubated sequentially with a biotin conjugated secondary antibody solution, horseradish peroxidase (HRP)-conjugated strepavidin, and HRP detection buffer. The signals were then visualized by chemiluminescence. Densitometric analysis was performed to detect differences between the various samples using ImageQuant 5.1 software (Molecular Dynamics). Positive control signals were used to normalize the level of expression from different glass slides being compared. Experiments were repeated with 3 different samples (n=3), and all the detection and analysis was done blind.
The results of this group of experiments are shown with the reference to FIGS. 15 and 16. FIG. 15 provides graphs showing the level of protein expression of chemokines in spinal cords of naive mice and EAE mice treated with PLA2 inhibitors starting on day 5. Tissues were taken on day 18, when the vehicle treated animals reached the peak of the first clinical attack. The data are shown for inhibitors AX059 (FIG. 15a) and AX115 (FIG. 15b). Data represent means±SEM from 3 animals in each group. In the figures, * represents a significant decrease, while ** represents a significant increase as compared to vehicle treated EAE controls.
FIG. 16 provides graphs showing the level of protein expression of cytokines in spinal cords of naive mice and EAE treated mice treated with PLA2 inhibitors starting on day 5. Tissues were taken on day 18, when the vehicle treated animals reached the peak of the first clinical attack. The data are shown for inhibitors AX059 (FIG. 16a) and AX115 (FIG. 16b). Data represent means±SEM from 3 animals in each group. In the figures, * represents a significant decrease, while ** represents a significant increase as compared to vehicle treated EAE controls.
Changes were assessed in protein expression of 40 chemokines and cytokines, their receptors and related molecules, using a mouse antibody array (RayBiotech Inc.). The analysis was carried out on spinal cords from mice treated with inhibitors starting from day 5 post-immunization. Tissue was taken on day 18 when the control vehicle-treated mice reached the peak of the first clinical attack. 12 chemokines were increased in vehicle-treated mice (FIG. 15), most of which are known to play a role in EAE, except for LIX (CXCL5) and TECK (CCL25), whose functions in CNS autoimmune disease remain unclear. […] In contrast, the pan-inhibitor AX115, which inhibits sPLA2 greater than AX059 reduced the expression of 7 of the 12 chemokines (FIG. 15b). Importantly, it increased the expression of eotaxin-2 (1.8-fold), RANTES (9.6-fold) and MIP-1 γ (9.7-fold) […], which can also regulate the allergic arm of the immune response.

`CCCCCCCCCCCCCCC(=O)C(=O)NCC(=O)OC` [AX115] was tested, and the “Inhibition iPLA2GIVA” value (iPLA2 (GVIA)) was 45%, the “number of chemokines reduced” value ([1]; of the 12 chemokines increased in vehicle-treated EAE mice) was 7 and the “number of cytokines reduced” value ([1]; of the 13 cytokines increased in vehicle-treated EAE mice) was 9. For the same compound, the “increase in expression of IL-10” value ([1]; spinal cord) was “failed to increase IL-10”, the “increase in expression of MIP-1 γ” value ([1]; spinal cord) was 9.7 fold and the “increase in expression of RANTES” value ([1]; spinal cord) was 9.6 fold. The “increase in expression of eotaxin-2” value ([1]; spinal cord) was 1.8 fold and the “increase in soluble TNF receptor 1 (sTNFR1)” value ([1]; spinal cord) was ~4 fold.
